{"source": "patent US12629390B2", "about": "“Stabilized amorphous calcium carbonate for treatment of neurological, muscular and infertility diseases or conditions” (AMORPHICAL LTD., priority 2016, dated 2026)", "key": {"sperm": {"test_system": "sperm", "settings": "addition to calcium-free mediums; Bhoumik et al. 2014; cited from earlier work"}, "mice embryos": {"test_system": "mice embryos", "assay": "in vitro embryo development in Quinn's Advantage cleavage media", "format": "cell-based", "protocol": "CBA male mice were bred with BL C57 female mice. The mice were kept on a 12 hours photoperiod schedule with unlimited water and food supply. About 6 to 8 weeks after receiving offspring, each female mouse was injected IP with 5IU of pregnant mare serum gonadotropin (PMSG).\nAfter 48 hours each female mouse was injected IP with 5IU human chorionic gonadotropin (hCG). Male mice proven to be fertile were then put together with the superovulated females. The next morning the female mice were examined for the presence of copulatory plugs. Females that had copulatory plugs were euthanized after 24 hours (approximately 36 hours post-coitus) and embryos at 2 cell stage were retrieved from the oviducts as following: the oviducts were dissected in Quinn's Advantage cleavage media (SAGE, Origio, Denmark) and the embryos were transferred to 20 μL drops with Quinn's Advantage cleavage media (SAGE, Origio, Denmark) overlaid with mineral oil and cultured at 37.0° C. under 5% CO2 and atmospheric oxygen. The collected embryos continued to grow, i.e. in-vitro culture (IVC), until blastocyst/hatching stage. To test the effect of amorphous calcium carbonate, the Quinn's Advantage cleavage media (“cleavage media” hereinafter) was supplemented with different additives, i.e. amorphous calcium carbonate stabilized by polyphosphate (ACC-PP), crystalline calcium carbonate (CCC), polyphosphate (PP), phosphoserine (PS) or sodium carbonate ([…]). All supplements were added as a freshly prepared suspension; the preparation of the ACC supplements were performed under aseptic conditions. Untreated cleavage media (without addition of any additive) was used as a control (identified as Cont Q). The embryos were evaluated every day by microscope observation for a detection of the following stages: 2 cells, compactions stage, blastocysts formation and hatching stage. The fraction (in percent) of the embryos reached each stage was calculated (the number of 2 cells embryos was set as 100%)."}, "[1]": {"test_system": "spinal cord-dorsal root ganglia (SC-DRG) slices", "assay": "nerve fiber sprouting from SC-DRG co-cultures", "format": "cell-based, rat", "settings": "after 4 days of cultivation, portion of explants (out of 6)", "protocol": "Neural and Vascular Reconstruction Gel ([…] Labs proprietary) is composed of two main components: high molecular hyaluronic acid (HA, 3×10^6 Da, BTG, Israel) and laminin (Sigma). […] The gel has the texture of a viscous liquid, it adheres easily and successfully the embedded cells or explants to the plastic or glass substratum, and enabled nerve fiber outgrowth in a 3D pattern. All the experiments were carried out and authorized by the local ethics committee recognized by the Israeli authorities for animal experimentation. Stationary organotypic cultures of dorsal root ganglia (DRG) and spinal cord (SC) as well as cultures of dissociated brain cells were prepared from rat fetuses (15 days of gestation, Lewis inbred, Harlan, Israel). Immediately after dissection, the isolated tissues were cut with a […] tissue chopper into small slices (of 400 μm thickness). In these studies, two tissue culture strategies were used. […] In the second method, the tissue slices were further dissociated with a trypsin-EDTA solution for 30 min, and washed with a culture medium. Subsequently, the dissociated cells were added to a suspension of chitosan powder or gastrolith powder (micro carriers, MCs) and incubated in suspension at 37° C. for 4 days. […] Calcium source were as following: ACC-Etidronic Acid (ACC-ET) (fresh suspension); ACC-Phosphoserine (ACC-PS) (fresh suspension); Gastrolith (dissolved with 0.1 M HCl and then neutralized with NaOH 1M); gastrolith powder; […] The cultures were monitored by daily phase contrast microscopic observations starting from 24 hours after setting the cultures onward. Suspensions of fresh ACC preparations consisted of particles forming a stable suspension. The gastrolith is a natural ACC isolated from crabs, and can be purchased only as a dry powder. In this form, its other characteristic components (such as calcium ions and proteins) are not available to the cells. In order to increase their bioavailability, the gastrolith powder was dissolved in 0.1 M HCl (which mimics the acidity which exists in the stomach) and then neutralized with 1M NaOH. […] The specimens were then incubated with rabbit anti-neurofilament antibodies (NF, Novus Biologicals, 1:500) to visualize the neurite outgrowth. […] Finally, the samples were rinsed again with wash buffer, and mounted with mounting medium (Immco Diagnostic, USA)."}, "[2]": {"test_system": "healthy skeletal muscle cultures", "assay": "myotube formation and contraction in healthy skeletal muscle cultures", "format": "cell-based, rat", "settings": "added at 1 mM (final Ca2+ 2 mM)", "protocol": "Stationary skeletal muscle cultures were prepared from healthy 1 day new born rat (Sprague Dawley, Harlan, Israel). The muscle tissue was dissected from posterior legs and was thoroughly minced. Digestion was performed with Trypsin-EDTA while gentle trituration. After 30 min the supernatant, containing dissociated cells, was collected and a fresh Trypsin-EDTA was added. This procedure was repeated two more times. Then, all supernatants were pooled, centrifuged, and the cell pellet was re-suspended in Proliferation Medium. Cells were seeded in a Gelatin coated 12 wells culture plates, 1×10^5 cells/well containing 1 mL of Proliferation Medium. Two days later, the medium was changed to Fusion Medium, which was then changed twice a week. The cultures were monitored by daily phase contrast microscopic observations from 24 hours after setting the cultures and onward.\nStock solution of 1% porcine gelatin in water, was sterilized by autoclave. Once cooled, 500 μl of the solution were added to each well of the 12-wells culture plat. After incubation for 20 min at room temperature, the excess solution was removed, and the cells were seeded.\nFor the proliferation stage, cells were cultured in: DMEM/F12 (containing 1 mM Ca^2+) +10% FBS, 25 μg/mL Gentamycin, and 2 mM L-Glutamine.\nFor the fusion stage the Proliferation Medium was changed with Fusion Medium, which was prepared as following: DMEM/F12 (containing 1 mM Ca2+), 2% horse serum (HS), 2 mM L-Glutamine, 25 μg/mL Gentamycin, and 4 units/100 mL Insulin (all purchased from Biological-Industries, Israel).\nControl cultures were grown without further added calcium, or cultures enriched with free (soluble) stabilizer. The experiment was blinded by marking the various calcium preparations with arbitrary numerals only.\nThe components were added in one of the following ways: (i) aqueous suspensions of dry material; (ii) aqueous suspension of fresh material (before drying), or (iii) dissolved with HCl (to mimic the acidity which exists in the stomach. After dissolving was accomplished, the formed solutions were neutralized with 1M NaOH)."}, "mdx mice": {"test_system": "mdx mice", "assay": "serum creatinine kinase (CK) levels in mdx mice given calcium supplements orally", "format": "in vivo", "settings": "12 weeks", "excerpt": "Experimental mice were administrated orally (by feeding or drinking) with control or test items. The control or test items were repeatedly administered daily until the study termination (after 12 weeks).\nAnimals were administrated with ACC by food or by drinking. Animals were administrated with CCC by food. Control was administrated by feeding. The control or test items were repeatedly administered daily until study termination.\nAt study termination blood sample was drawn from all animals under light anesthesia with Ketmaine/Xylazine, directly from the retro orbital sinus.\n200 μl blood were collected into a yellow-cup tube with clotting activator gel. The tubes were kept at room temperature for at least 30 minutes for clotting and centrifuged at room temperature for 10 minutes at 4000 RPM. The serum samples are stored at 2-4° C. until delivered to CK analysis at A.M.L labs."}, "[3]": {"settings": "Example 17, mice 3-6 pooled embryos, 1.7 mM in cleavage media"}, "[4]": {"settings": "Example 17, mouse 2 sibling embryos, 1.7 mM in cleavage media"}, "[5]": {"settings": "Example 13, mice 3-7 pooled embryos, 1.6 mM in cleavage media"}, "[6]": {"settings": "Example 14, pooled embryos, 1.6 mM in cleavage media"}, "[7]": {"settings": "Example 16, pooled embryos, 1.7 mM in cleavage media"}, "[8]": {"settings": "Example 15, pooled embryos, 3.3 mM in cleavage media"}, "[9]": {"settings": "Example 17, mouse 1 sibling embryos, 1.7 mM in cleavage media"}}, "data": [{"compound": "[Ca+2]", "note": "[Ca^2+ ions]", "values": [{"measurement": "increase of forward sperm motility", "setting": "sperm", "value": "up to 20%"}]}, {"compound": "O=C([O-])[O-].[Na+].[Na+]", "note": "[NaCO3, sodium carbonate]", "values": [{"measurement": "embryonic development compared to control or to the addition of ACC-PP", "setting": "mice embryos; Example 17, 1.7 mM in cleavage media", "value": "very poor embryonic development"}, {"measurement": "8 cell/d2: number of embryos", "setting": "mice embryos; [3]", "value": 2}, {"measurement": "Blast/d3: number of embryos", "setting": "mice embryos; [3]", "value": 0}, {"measurement": "Blast/d4: number of embryos", "setting": "mice embryos; [3]", "value": 0}, {"measurement": "Hatch/d4: number of embryos", "setting": "mice embryos; [3]", "value": "0 (0)"}, {"measurement": "Hatch/d4: portion of the initial number of embryos", "setting": "mice embryos; [3]", "value": "0 (0) %"}, {"measurement": "comp/d2: number of embryos", "setting": "mice embryos; [3]", "value": 7}, {"measurement": "degenerative: number of embryos", "setting": "mice embryos; [3]", "value": 1}, {"measurement": "early Blast/d3: number of embryos", "setting": "mice embryos; [3]", "value": 0}, {"measurement": "8 cell/d2: number of embryos", "setting": "mice embryos; [4]", "value": 6}, {"measurement": "Blast/d3: number of embryos", "setting": "mice embryos; [4]", "value": 2}, {"measurement": "Blast/d4: number of embryos", "setting": "mice embryos; [4]", "value": 0}, {"measurement": "Hatch/d4: number of embryos", "setting": "mice embryos; [4]", "value": 2}, {"measurement": "Hatch/d4: portion of the initial number of embryos", "setting": "mice embryos; [4]", "value": 12.5, "unit": "%"}, {"measurement": "comp/d2: number of embryos", "setting": "mice embryos; [4]", "value": 8}, {"measurement": "degenerative: number of embryos", "setting": "mice embryos; [4]", "value": 2}, {"measurement": "early Blast/d3: number of embryos", "setting": "mice embryos; [4]", "value": 14}]}, {"compound": "polyphosphate [PP]", "values": [{"measurement": "8 cell/d2: number of embryos", "setting": "mice embryos; [5]", "value": 9}, {"measurement": "Blast/d3: number of embryos", "setting": "mice embryos; [5]", "value": 20}, {"measurement": "Blast/d3: portion of the initial number of embryos", "setting": "mice embryos; [5]", "value": 54.1, "unit": "%"}, {"measurement": "Hatch/d4: number of embryos", "setting": "mice embryos; [5]", "value": 17}, {"measurement": "Hatch/d4: portion of the initial number of embryos", "setting": "mice embryos; [5]", "value": 45.9, "unit": "%"}, {"measurement": "comp/d2: number of embryos", "setting": "mice embryos; [5]", "value": 20}, {"measurement": "8 cell/d2: number of embryos", "setting": "mice embryos; [6]", "value": 6}, {"measurement": "Blast/d3: number of embryos", "setting": "mice embryos; [6]", "value": 34}, {"measurement": "Blast/d3: portion of the initial number of embryos", "setting": "mice embryos; [6]", "value": 94.44, "unit": "%"}, {"measurement": "Hatch/d4: number of embryos", "setting": "mice embryos; [6]", "value": 16}, {"measurement": "Hatch/d4: portion of the initial number of embryos", "setting": "mice embryos; [6]", "value": 44.44, "unit": "%"}, {"measurement": "comp/d2: number of embryos", "setting": "mice embryos; [6]", "value": 30}]}, {"compound": "N[C@@H](COP(=O)(O)O)C(=O)O", "note": "[PS, phosphoserine]", "values": [{"measurement": "Cultures with axonal regeneration (%)", "setting": "[1]; stabilizer alone at 0.05%", "value": 0, "unit": "%"}, {"measurement": "8 cell/d2: number of embryos", "setting": "mice embryos; [7]", "value": 5}, {"measurement": "Blast/d3: number of embryos", "setting": "mice embryos; [7]", "value": 12}, {"measurement": "Blast/d3: portion of the initial number of embryos", "setting": "mice embryos; [7]", "value": 92.3, "unit": "%"}, {"measurement": "Hatch/d4: number of embryos", "setting": "mice embryos; [7]", "value": 10}, {"measurement": "Hatch/d4: portion of the initial number of embryos", "setting": "mice embryos; [7]", "value": 76.9, "unit": "%"}, {"measurement": "comp/d2: number of embryos", "setting": "mice embryos; [7]", "value": 8}]}, {"compound": "O=C([O-])[O-].[Ca+2]", "note": "[CCC, crystalline calcium carbonate]", "values": [{"measurement": "muscle fibers after 7 days", "setting": "[2]", "value": "fewer, thinner and shorter muscle fibers"}, {"measurement": "early formation of many myotubes, time of cultivation", "setting": "[2]; dry powder suspended in water", "value": "later"}, {"measurement": "elevation of CK compared to mdx group on normal diet only (2M)", "setting": "mdx mice; by food, diet with 1% elemental calcium (4M: synthetic ACC 5% PS; 3M: synthetic CCC)", "value": "not statistically significant"}, {"measurement": "creatinine kinase (CK) in serum", "setting": "mdx mice; group 3M: by food, diet with 1% elemental calcium", "value": "21,676±14,508 IU/ml"}, {"measurement": "Cultures with axonal regeneration (%)", "setting": "[1]; calcium preparation at Ca2+ 2 mM", "value": 50, "unit": "%"}, {"measurement": "8 cell/d2: number of embryos", "setting": "mice embryos; [8]", "value": 3}, {"measurement": "Blast/d3: number of embryos", "setting": "mice embryos; [8]", "value": 17}, {"measurement": "Blast/d3: portion of the initial number of embryos", "setting": "mice embryos; [8]", "value": 100, "unit": "%"}, {"measurement": "Hatch/d4: number of embryos", "setting": "mice embryos; [8]", "value": 14}, {"measurement": "Hatch/d4: portion of the initial number of embryos", "setting": "mice embryos; [8]", "value": 82.35, "unit": "%"}, {"measurement": "comp/d2: number of embryos", "setting": "mice embryos; [8]", "value": 14}, {"measurement": "8 cell/d2: number of embryos", "setting": "mice embryos; [9]", "value": 14}, {"measurement": "Blast/d3: number of embryos", "setting": "mice embryos; [9]", "value": 12}, {"measurement": "Blast/d4: number of embryos", "setting": "mice embryos; [9]", "value": 5}, {"measurement": "Hatch/d4: number of embryos", "setting": "mice embryos; [9]", "value": 15}, {"measurement": "Hatch/d4: portion of the initial number of embryos", "setting": "mice embryos; [9]", "value": 62.5, "unit": "%"}, {"measurement": "comp/d2: number of embryos", "setting": "mice embryos; [9]", "value": 6}, {"measurement": "degenerative: number of embryos", "setting": "mice embryos; [9]", "value": 1}, {"measurement": "early Blast/d3: number of embryos", "setting": "mice embryos; [9]", "value": 8}]}, {"compound": "CC(O)(P(=O)(O)O)P(=O)(O)O", "note": "[ET, Etidronic Acid]", "values": [{"measurement": "Cultures with axonal regeneration (%)", "setting": "[1]; stabilizer alone at 0.05%", "value": 33.3, "unit": "%"}]}]}
